For one experiment, the target named is T1, Aurora-2 (Aurora A) (Homo sapiens, UniProt O14965).
T1 sequence (O14965 1-403): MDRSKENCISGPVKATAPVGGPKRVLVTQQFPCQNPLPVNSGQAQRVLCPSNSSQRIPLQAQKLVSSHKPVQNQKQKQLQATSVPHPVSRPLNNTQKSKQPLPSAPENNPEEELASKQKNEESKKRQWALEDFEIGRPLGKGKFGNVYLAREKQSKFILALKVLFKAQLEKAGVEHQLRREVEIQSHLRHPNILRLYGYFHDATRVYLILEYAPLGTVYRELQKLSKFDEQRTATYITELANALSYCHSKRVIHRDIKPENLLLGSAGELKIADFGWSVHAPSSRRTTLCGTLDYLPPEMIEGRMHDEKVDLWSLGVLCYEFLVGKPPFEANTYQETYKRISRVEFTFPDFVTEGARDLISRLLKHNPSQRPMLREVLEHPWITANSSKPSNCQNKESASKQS
Kind of experiment: Aurora-2 (Aurora A) Inhibition Assay, coupled enzyme assay. The format is biochemical. To be noted: 400 μM ATP, 30° C.; read-out: Aurora A kinase activity Ki. In a few lines:
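Coupled pyruvate kinase/LDH assay (NADH read-out) with 40 nM Aurora-2, 400 μM ATP and 570 μM Kemptide in 100 mM Hepes pH 7.5, 10 mM MgCl2, at 30 °C. Compound preincubated 10 min (serial dilutions typically from 7.5 μM final); initial rates over 10 min, IC50 and Ki by non-linear regression.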

The next experiment concerns Colo205 cells. Kind of experiment: Analysis of Cell Proliferation, 3H thymidine incorporation. The format is cell-based. The note with it: Homo sapiens. In a few lines: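 Serially diluted compound added in duplicate to Colo205 cells, 0.1% DMSO diluent control, incubated 72 or 96 hrs at 37C, 5% CO2. 0.5 μCi 3H thymidine added 3 h before end; incorporated radioactivity counted by beta-counter and dose-response curves fitted.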

For experiment [1], the target named is N-terminally truncated (Δ 27) Abl kinase (Homo sapiens, UniProt P00519). Kind of experiment: Abl Kinase Activity Inhibition Assay, coupled enzyme system. The format is biochemical. The note with it: 110 μM ATP, 30° C. The procedure:
Compounds were screened for their ability to inhibit N-terminally truncated (Δ 27) Abl kinase activity using a standard coupled enzyme system (Fox et al., Protein Sci., 7, pp. 2249 (1998)). Reactions were carried out in a solution containing 100 mM HEPES (pH 7.5), 10 mM MgCl2, 25 mM NaCl, 300 μM NADH, 1 mM DTT and 3% DMSO. Final substrate concentrations in the assay were 110 μM ATP (Sigma Chemicals, St Louis, Mo.) and 70 μM peptide (EAIYAAPFAKKK, American Peptide, Sunnyvale, Calif.). Reactions were carried out at 30° C. and 21 nM Abl kinase. Final concentrations of the components of the coupled enzyme system were 2.5 mM phosphoenolpyruvate, 200 μM NADH, 60 μg/ml pyruvate kinase and 20 μg/ml lactate dehydrogenase.
An assay stock buffer solution was prepared containing all of the reagents listed above with the exception of ATP and the test compound of interest. The assay stock buffer solution (60 μl) was incubated in a 96 well plate with 2 μl of the test compound of interest at final concentrations typically spanning 0.002 μM to 30 μM at 30° C. for 10 min. Typically, a 12 point titration was prepared by serial dilutions (from 1 mM compound stocks) with DMSO of the test compounds in daughter plates. The reaction was initiated by the addition of 5 μl of ATP (final concentration 110 μM). Rates of reaction were obtained using a Molecular Devices Spectramax plate reader (Sunnyvale, Calif.) over 10 min at 30° C. The Ki values were determined from the residual rate data as a function of inhibitor concentration using nonlinear regression (Prism 3.0, Graphpad Software, San Diego, Calif.).

Experiment [2] deals with T2, T315I mutant of human Abl (Homo sapiens, UniProt P00519, T315I).
T2 construct: purchased Upstate Cell Signaling Solutions (Dundee, UK)
Kind of experiment: Mutant Abl Kinase (T315I) Activity Inhibition Assay (Upstate, radiometric). The format is biochemical.

The target in the next experiment is Aurora-1 (Aurora B) (Homo sapiens, UniProt Q96GD4). Kind of experiment: Aurora-1 (Aurora B) Inhibition Assay (radiometric). The note with it: 800 μM ATP; read-out: Aurora B kinase activity Ki. The format is biochemical. An outline of the steps:
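Enzyme at 22 nM in solution with 1.5 mM Kemptide (LRRASLG) in 25 mM HEPES pH 7.5, 10 mM MgCl2, 0.1% BSA, 10% glycerol, 1.7 mM DTT. Compound pre-equilibrated 10 min at 25° C, then [γ-33P]-ATP added at 800 μM final for 3 h. 33P peptide incorporation by phosphocellulose capture and scintillation counting. Ki from initial rates by non-linear regression.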

Setting [3] is: COLO 205, 72 h, 72 hours, read-out: IC50 cell proliferation after 72 hours.
[4] abbreviates: COLO 205, 96 h, 96 hours, read-out: IC50 cell proliferation after 96 hours.

This is an account of results in patent publication US20100137305A1, “AMINOPYRIMIDINES USEFUL AS KINASE INHIBITORS” (VERTEX PHARMACEUTICALS INCORPORATED, priority 2008, published 2010).

Where two headings read alike, the source gives them in different places.

Chain of Aurora-1 (Aurora B) (Q96GD4 whole entry): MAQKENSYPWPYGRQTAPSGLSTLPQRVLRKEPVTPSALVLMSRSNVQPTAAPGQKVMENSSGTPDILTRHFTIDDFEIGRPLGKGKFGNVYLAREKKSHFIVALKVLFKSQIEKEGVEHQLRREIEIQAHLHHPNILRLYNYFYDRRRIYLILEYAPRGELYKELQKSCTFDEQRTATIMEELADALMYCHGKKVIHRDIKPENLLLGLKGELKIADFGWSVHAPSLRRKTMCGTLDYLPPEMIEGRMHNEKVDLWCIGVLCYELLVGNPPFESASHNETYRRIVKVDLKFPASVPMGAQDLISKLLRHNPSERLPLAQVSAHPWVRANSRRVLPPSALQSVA

Usually Ki stands for a dissociation constant, usually derived from enzyme kinetics or from competition with a known ligand. For `Cc1cc(Nc2cc(N3CCC(F)(F)C3)nc(Sc3ccc(NC(=O)CC(F)(F)F)cc3)n2)[nH]n1` [Compound I-27], the Ki on Aurora-2 (Aurora A) was ≤ 0.01 µM; in experiment [1], 0.025 to 0.1 µM; in experiment [2], < 0.2 µM; at Aurora-1 (Aurora B), 0.01 to 0.05 µM. Moreover, the IC50 in the experiment on Colo205 cells (setting [3]) lay within 0.025 to 0.125 µM; with Colo205 cells (setting [4]) it was 0.05 to 0.2 µM.
Regarding `Cc1cnc(Nc2cc(N3CC[C@@H](N(C)C)C3)nc(Sc3ccc(NC(=O)C4CC4)cc3)n2)s1` [Compound I-29], the inhibitory constant (Ki) at Aurora-2 (Aurora A) was ≤ 0.01 µM; in experiment [1], < 0.025 µM; in experiment [2], < 0.2 µM; on Aurora-1 (Aurora B), 0.01 to 0.05 µM. For the same molecule, the IC50 with Colo205 cells (setting [4]) was in the range of 0.05 to 0.2 µM.
On to `CCC(=O)Nc1ccc(Sc2nc(Nc3cc(C)n[nH]3)cc(N3CCC(C(C)(C)O)CC3)n2)cc1` [Compound I-42], for which the Ki was ≤ 0.01 µM at Aurora-2 (Aurora A), 0.025 to 0.1 µM in experiment [1], 0.2 to 0.5 µM in experiment [2] and 0.01 to 0.05 µM at Aurora-1 (Aurora B). The IC50 in the experiment on Colo205 cells (setting [4]) is ≤ 0.05 µM.
Regarding `Cc1cc(Nc2cc(N3CCC(N4CCC(F)C4)CC3)nc(Sc3ccc(NC(=O)CC(F)(F)F)cc3)n2)[nH]n1` (stereo not drawn) [Compound I-63], the Ki was ≤ 0.01 µM at Aurora-2 (Aurora A), 0.025 to 0.1 µM in experiment [1], < 0.2 µM in experiment [2] and ≤ 0.01 µM on Aurora-1 (Aurora B). Besides, the IC50 in the experiment on Colo205 cells (setting [3]) was ≤ 0.025 µM.
In the case of `Cc1cc(Nc2cc(N3CCC(N4CCCC4)CC3)nc(Sc3ccc(NC(=O)C4(C(F)(F)F)CC4)cc3)n2)[nH]n1` [Compound I-65], the Ki at Aurora-2 (Aurora A) was ≤ 0.01 µM; in experiment [1], 0.025 to 0.1 µM; in experiment [2] it was < 0.2 µM; on Aurora-1 (Aurora B), 0.01 to 0.05 µM. Moreover, in the experiment on Colo205 cells (setting [3]), the IC50 is ≤ 0.025 µM.
`Cc1cc(Nc2cc(N3CCC(N4CCCC4)CC3)nc(Sc3ccc(NC(=O)CC(F)(F)F)cc3)n2)[nH]n1` [Compound I-68]: the Ki at Aurora-2 (Aurora A) was ≤ 0.01 µM; in experiment [1], < 0.025 µM; in experiment [2], < 0.2 µM; on Aurora-1 (Aurora B) it was 0.01 to 0.05 µM. The IC50 with Colo205 cells (setting [3]) is ≤ 0.025 µM.
As for `Cc1cc(Nc2cc(N3CC4CCCN(C)C4C3)nc(Sc3ccc(NC(=O)CC(F)(F)F)cc3)n2)[nH]n1` (stereo not drawn) [Compound I-69, 3,3,3-trifluoro-N-(4-(4-(3-methyl-1H-pyrazol-5-ylamino)-6-(1-methyltetrahydro-1H-pyrrolo[3,4-b]pyridin-6(2H,7H,7aH)-yl)pyrimidin-2-ylthio)phenyl)propanamide], the Ki is ≤ 0.01 µM at Aurora-2 (Aurora A), 0.025 to 0.1 µM in experiment [1], < 0.2 µM in experiment [2] and ≤ 0.01 µM on Aurora-1 (Aurora B). Besides, the IC50 in the experiment with Colo205 cells (setting [3]) is ≤ 0.025 µM.
`Cc1cc(Nc2cc(N3CCC(F)C3)nc(Sc3ccc(NC(=O)CC(F)(F)F)cc3)n2)[nH]n1` (stereo not drawn) [Compound I-71]: the Ki was ≤ 0.01 µM at Aurora-2 (Aurora A), 0.025 to 0.1 µM in experiment [1], < 0.2 µM in experiment [2] and ≤ 0.01 µM at Aurora-1 (Aurora B). Further, in the experiment with Colo205 cells (setting [3]), the IC50 is ≤ 0.025 µM.
In the case of `Cc1cc(Nc2cc(N3CCC(O)CC3)nc(Sc3ccc(NC(=O)CC(F)(F)F)cc3)n2)[nH]n1` [Compound I-80], the inhibition constant Ki on Aurora-2 (Aurora A) was ≤ 0.01 µM; in experiment [1] it was 0.025 to 0.1 µM; in experiment [2], < 0.2 µM; at Aurora-1 (Aurora B), ≤ 0.01 µM. The IC50 with Colo205 cells (setting [3]) was in the range of 0.025 to 0.125 µM.
Consider `Cc1cc(Nc2cc(N3CCC(F)C3)nc(Sc3ccc(NC(=O)CCC(F)(F)F)cc3)n2)[nH]n1` (stereo not drawn) [Compound I-81], for which the Ki at Aurora-2 (Aurora A) is ≤ 0.01 µM; in experiment [1], 0.025 to 0.1 µM; in experiment [2], < 0.2 µM; at Aurora-1 (Aurora B), 0.01 to 0.05 µM. In addition, in the experiment with Colo205 cells (setting [3]), the IC50 lay within 0.025 to 0.125 µM.
